Measured values published in ChEMBL document CHEMBL1800035, “An optimized immunoaffinity fluorescent method for natural product target elucidation” (J Nat Prod, 2010).
The source made the active and inactive calls. The rule behind the calls is not given here.

Legend:
[1] = target: T1, Protein kinase C eta type (Homo sapiens, UniProt P24723); test: Binding affinity to PKCeta in human HeLa cell lysates at 10 nM to 100 uM after 2 hrs by immunoprecipitation analysis
[2] = target: T1, Protein kinase C eta type; test: Binding affinity to recombinant human PKCeta in after 2 hrs by microequilibrium dialysis assay
[3] = tested on: HeLa; test: Drug uptake in human HeLa cells assessed as subcellular localization in endoplasmic reticulum at 10 uM after 6 hrs using blue-fluorescent IAF-tagged streptavidin staining by live cell microscopic analysis; format: ADME, cell-based
[4] = tested on: HeLa; test: Drug uptake in human HeLa cells assessed as subcellular localization in endoplasmic reticulum at 10 uM after 6 hrs using blue-fluorescent IAF-tagged streptavidin staining by live cell microscopic analysis presence of glycyrrhetic acid; format: ADME, cell-based
[5] = Binding affinity to mouse IAF-labeled immunoglobulin G mAb by immunoaffinity fluorescent method
[6] = tested on: HeLa; test: Drug uptake in human HeLa cells assessed as subcellular localization in endoplasmic reticulum at 25 uM after 6 hrs by live cell microscopic analysis; format: ADME, cell-based

T1 sequence (P24723 whole entry): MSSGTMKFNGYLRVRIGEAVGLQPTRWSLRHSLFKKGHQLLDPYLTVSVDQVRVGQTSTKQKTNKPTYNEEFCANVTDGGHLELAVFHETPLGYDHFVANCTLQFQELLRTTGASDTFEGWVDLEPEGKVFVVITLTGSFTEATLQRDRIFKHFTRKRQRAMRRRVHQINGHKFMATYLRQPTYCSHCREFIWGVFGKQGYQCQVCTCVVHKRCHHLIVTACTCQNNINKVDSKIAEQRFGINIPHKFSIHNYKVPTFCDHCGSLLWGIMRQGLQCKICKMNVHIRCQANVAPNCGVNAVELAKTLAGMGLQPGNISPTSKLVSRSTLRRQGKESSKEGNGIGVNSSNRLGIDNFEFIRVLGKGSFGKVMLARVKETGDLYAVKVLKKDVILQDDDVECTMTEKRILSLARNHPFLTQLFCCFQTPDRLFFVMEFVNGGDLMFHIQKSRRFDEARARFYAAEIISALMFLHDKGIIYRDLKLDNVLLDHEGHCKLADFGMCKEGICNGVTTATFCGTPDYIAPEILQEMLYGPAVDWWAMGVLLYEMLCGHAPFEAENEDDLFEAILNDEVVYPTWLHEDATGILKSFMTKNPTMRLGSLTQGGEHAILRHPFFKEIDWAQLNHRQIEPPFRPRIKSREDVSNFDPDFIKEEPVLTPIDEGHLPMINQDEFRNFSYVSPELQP

Row | SMILES | Activity [1] | Kd [2] | Drug uptake [3] | other results
1 | C#CCNC(=O)Cc1cc(=O)oc2cc(N(C)C)ccc12 | inactive | – | – | –
2 | CN(C)c1ccc2c(CC(=O)NCCNC(=O)[C@@]3(C)CC[C@]4(C)CC[C@]5(C)C(=CC(=O)[C@@H]6[C@@]7(C)CC[C@H](O)C(C)(C)[C@@H]7CC[C@]65C)[C@@H]4C3)cc(=O)oc2c1 | – | 640 nM | Active | Drug uptake [4]: Not Active; Kd [5]: 540 nM
3 | CC1(C)[C@@H](O)CC[C@]2(C)[C@H]3C(=O)C=C4[C@@H]5C[C@@](C)(C(=O)NCCNC(=O)CCCC[C@@H]6SC[C@@H]7NC(=O)N[C@@H]76)CC[C@]5(C)CC[C@@]4(C)[C@]3(C)CC[C@@H]12 | – | – | Not Active | –

Now from value to molecule, other results behind:

Row | Activity [1] | Kd [2] | Drug uptake [3] | SMILES | other results
4 | inactive | – | – | CC1(C)[C@@H](O)CC[C@]2(C)[C@H]3C(=O)C=C4[C@@H]5C[C@@](C)(C(=O)NCCN=[N+]=[N-])CC[C@]5(C)CC[C@@]4(C)[C@]3(C)CC[C@@H]12 | –
5 | – | 250 nM | – | CC1(C)[C@@H](O)CC[C@]2(C)[C@H]3C(=O)C=C4[C@@H]5C[C@@](C)(C(=O)O)CC[C@]5(C)CC[C@@]4(C)[C@]3(C)CC[C@@H]12 [ENOXOLONE] | Drug uptake [6]: Active
